In the experiment the test system is MDA-MB-468 breast. As to the kind of experiment: NCI-60 cell line screen, 48 h.

These results are taken from PubChem BioAssay (NCI).

SMILES strings stand for the structures.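 96-well plates; 48 h exposure; 5 concentrations. Endpoints by linear interpolation between flanking doses. Not reached: highest tested concentration assigned. GI50: concentration for 50% inhibition of growth. TGI is the concentration that stops growth completely.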 Bounds are passed on as bounds.

Regarding `Cn1cc(C2=C(c3cn(CCN)c4ccccc34)C(=O)NC2=O)c2ccccc21`, the GI50 was 4730 nM and the TGI came out at 13400 nM.
For `CCCN(CCC)c1ccc(/C=N/NC(=O)c2cccnc2)c(Cl)c1` the same measures were 197 nM and 631 nM.
Consider `COc1cc(/C=C2\COc3ccc(O)c(O)c3C2=O)cc(OC)c1`, for which the GI50 was 1910 nM and the TGI was 6690 nM.
For `C[C@@H]1C=C2C(=O)O[C@@H]3CC[C@H](C1)[C@]23O` the same measures were 1750 nM and 5500 nM.
For `COC(=O)CCC/C=C\C[C@H]1C=CC(=O)/C1=C/C[C@@H](O)C/C=C\CC(F)(F)F` the same measures were 1740 nM and 3770 nM.
For `CCCCCCCC[N+](C)(CCCCCCCC)CCCCCCCC` the same measures were 202 nM and 901 nM.
Consider `COc1ccc([N+](=O)[O-])c(S(=O)(=O)c2ccc(Cl)cc2)n1`, for which the GI50 was 1930 nM and the TGI was found to be 4760 nM.
For `Cc1ccc(C)c(-c2csc(Nc3ccc(C)c(C)c3)n2)c1` the same measures were 63100 nM and over 100000 nM.
Take `Cc1ccc(S(=O)(=O)N2CCc3ccc(O)c4c3C2Cc2cc(Cl)ccc2-4)cc1` (centres undefined): the GI50 is 707 nM and the TGI turned out to be 1920 nM.
For `CC[C@]12C=CCN3CC[C@]4(C(=C(C(=O)OC)C1)Nc1cc5c(cc14)[C@@H]1[C@H](O5)[C@@H](O)[C@@]4(CC)CC(C(=O)OC)=C5Nc6cc(OC)ccc6[C@@]56CCN1[C@@H]46)[C@@H]32` the same measures were 94.4 nM and 1340 nM.
Turning to `CCCc1nc2c(C)cc(-c3nc4ccccc4n3C)cc2n1Cc1ccc(-c2ccccc2C(=O)O)cc1`, the GI50 is 37400 nM and the TGI is over 100000 nM.
For `CSc1nc2sc3cc(Cl)ccc3n2c(=N)c1C#N` the same measures were 2130 nM and 20000 nM.
For `C=C(C)[C@@H]1CC[C@]2(C)[C@H](CC[C@@H]3[C@H]4[C@H]5OC[C@@]4(CCC5(C)C)CC[C@]32C)[C@@]1(C)CCCN` the same measures were 1580 nM and 3050 nM.
For `C=C1C(=O)O[C@H]2[C@H]1CC/C(COC(=O)NCc1c[nH]c3ccc(Cl)cc13)=C\CC[C@@]1(C)O[C@@H]21`, in that order: 913 nM and 2500 nM.
On to `COc1ccc(/C=C/c2n[nH]c3ccc(N4CCOC4=O)cc23)cc1`, for which the GI50 is 2440 nM and the TGI is 4720 nM.
For `CC(C)n1c2c([n+](C)c1/C=C/c1ccccc1)C(=O)c1ccccc1C2=O`, in that order: under 10 nM and 14.8 nM.
For `CC(=O)N=c1ccc2nc3c(cc(N)c4ccccc43)oc-2c1`, in that order: 274 nM and 1400 nM.
For the compound `CC(=O)OC[C@]12CC[C@@H](C(=O)/C=C/c3cccnc3)[C@@H]1[C@H]1CC[C@@H]3[C@@]4(C)CC[C@H](OC(C)=O)C(C)(C)[C@@H]4CC[C@@]3(C)[C@]1(C)CC2`, the GI50 was 1770 nM and the TGI was 4410 nM.
Take `N#Cc1ccnc(N2C(=O)CC[C@H]2C(=O)N(c2cncc(F)c2)[C@H](C(=O)NC2CC(F)(F)C2)c2ccccc2Cl)c1`: the GI50 was 28400 nM and the TGI is over 100000 nM.
In the case of `COc1cc(C(=O)c2cc3c(cc2C)OCO3)cc(OC)c1OC`, the GI50 is 31.1 nM.
For `CCOC(=O)c1sc(Nc2ccc(Cl)cc2)nc1C`, the GI50 was 1560 nM and the TGI is 4240 nM.
For `COC1=CC(c2ccc[nH]2)=N/C1=C\c1[nH]c(C)c(C(=O)CCCCC(=O)Nc2ccccc2)c1C`, in that order: 1720 nM and 3660 nM.
For `NS(=O)(=O)c1ccc(CCN=C=S)cc1` the same measures were 380 nM and 2860 nM.
For `COc1ccc(C2=NN(C(C)=O)C(c3cn(-c4ccccc4)nc3-c3ccc(Cl)cc3)C2)cc1` (centres undefined) the same measures were over 100000 nM and over 100000 nM.
In the case of `O=C(CCCCCCNC(=O)C(O)(O)C(F)(F)F)Nc1ccc(Br)cc1`, the GI50 was 821 nM and the TGI turned out to be 2680 nM.
